Data from PubChem BioAssay AID179 (DTP/NCI, 2004).
pEC50, pIC50: −log10 of the molar value. Active and inactive are the calls of the source.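 The calls were made as follows: active = compounds giving half or more protection of infected cells from virus-caused growth loss, again on retest; inactive = the rest.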 Where a SMILES comes first, the peptide text is derived from it. The star is where a group is joined. Boc = CC(C)(C)OC(=O)*

Tested on: CEM cells HIV-1 protection, formazan growth assay
Assay: NCI AIDS Antiviral Assay
Conditions: for pIC50: measured here: growth of uninfected CEM cells
In short: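 Screen of anti-HIV-1 activity in human CEM cells using a formazan-based growth measurement at five drug concentrations. Hits with 50% or greater protection were repeated, and confirmation required reproducible complete protection.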

CCCCCCCCCCCCCCCCCCOP1(=O)OCCO1
pEC50: < 4.30
pIC50: < 4.30

CC(=O)OC1C[C@@H](C)C2(CC(c3ccoc3)OC2=O)C2CCC(O)C3(CO3)C12CO (stereo partly drawn)
pEC50: < 3.70
pIC50: < 3.70

N#CCCN(c1ccc(C=Nc2ccc(C(=O)O)cc2)cc1)S(=O)(=O)c1ccccc1
pEC50: < 3.52
pIC50: < 3.52

O=c1c2ccccc2[nH]c(=S)n1-c1ccc(Br)cc1
pEC50: < 4.39
pIC50: < 4.39

COc1ccc2c(c1)c(=O)c1ccccc1n2/C=C/C(=O)O
pEC50: < 3.21
pIC50: 3.98

Cc1ccc(C2=Nc3ccc(F)cc3SC(C(=O)O)C2)cc1 (stereo not drawn)
outcome: inactive

Cn1c2c(sc1=O)CCC2
pEC50: < 3.70
pIC50: < 3.70

C=Cc1cncc(C#N)c1CCc1c(C#N)cncc1C=C
pEC50: < 4.46
pIC50: < 4.46

O=S(=O)(/C=C/C(=C/c1ccccc1)S(=O)(=O)c1ccccc1)c1ccccc1
outcome: inactive

O=[N+]([O-])c1ccc(C2OCC3CSCN32)cc1 (stereo not drawn)
pEC50: < 4.40
pIC50: < 4.40

CC(=O)N1CCN(C=S)CC1
pEC50: < 2.84
pIC50: < 2.84

CC(C)(C)OC(=O)NC(Cc1ccccc1)C(=O)N1CCCC1C(N)=O (stereo not drawn) (Boc-Phe-Pro-NH2; configuration not given here)
pEC50: < 3.70
pIC50: < 3.70

COc1ccc(-c2c(N)n(-c3nc4ccccc4s3)c(=O)c3cc([N+](=O)[O-])ccc23)cc1
pEC50: < 4.00
pIC50: 5.97

Cc1cccc(C)c1N1C(=O)C2c3[nH]c4ccccc4c3C3CCC(C(C)(C)C)CC3C2C1=O (stereo not drawn)
pEC50: < 3.70
pIC50: 4.91

C/C(=C\c1ccccc1)C(O)C(=O)c1nc2ccc([N+](=O)[O-])cc2[nH]c1=O (stereo not drawn)
outcome: inactive

O=C1C(c2ccccc2)=C(c2ccccc2)C1(Cl)Cl
pEC50: < 3.70
pIC50: 5.61

CCOc1cn(C2OC(CO)C(O)C2O)c(=O)[nH]c1=O (stereo not drawn)
pEC50: < 3.06
pIC50: 3.31

CCC(CCCC[C@@H]1CC[C@H]2CC(=O)C[C@@H]12)OC (stereo partly drawn)
pEC50: < 3.70
pIC50: 3.82

S=c1n(-c2ccc(Cl)cc2)c2nc3ccccc3nc(/c2=N\Nc2ccccc2)n1-c1ccccn1
pEC50: < 4.43
pIC50: 4.53

COC(=O)c1cc2c(c(C(=O)OC)c1O)C(=O)C=CC2=O
pEC50: < 4.60
pIC50: 5.18

CC(C)=CCc1c(O)ccc2c1OC1c3ccc(O)c(CC=C(C)C)c3OCC21 (stereo not drawn)
outcome: inactive

O=C(CC1(CC(=O)NCc2ccccc2)OCCO1)NCc1ccccc1
outcome: inactive

NC(=O)N=Nc1c2ccccc2n2[nH]ccc12
pEC50: < 3.70
pIC50: 4.09

CC(=O)OC(/C=C/c1ccccc1)=C(OC(C)C)/C1=C(\c2ccccc2)SCCCSC1=O
pEC50: < 3.70
pIC50: < 3.70

NCC1OC(OC2C(CO)OC(OC3C(O)C(N)CC(N)C3OC3OC(CN)C(O)C(O)C3N)C2O)C(N)C(O)C1O (stereo not drawn) (tested in a mixture with another compound)
pEC50: < 3.87
pIC50: 5.03

CC(=O)C(C(c1ccccc1)N1CCCc2ccccc21)N1CCOCC1 (stereo not drawn)
pEC50: < 3.70
pIC50: 4.21

CN(C)CCSc1nccc(-c2ccc(-c3ccnc(SCCN(C)C)n3)s2)n1
pEC50: < 3.99
pIC50: 6.74

CCOC(=O)c1sc2[n+](c1C)C(=O)/C(=C/c1ccc([N+](=O)[O-])cc1)S2
pEC50: < 3.70
pIC50: 4.69

O=C(CC1Sc2ccccc2NC1=O)Nc1ccc(Cl)cc1 (stereo not drawn)
pEC50: < 3.97
pIC50: < 3.97

CSc1nc(SC)c2nc(Nc3ccccc3)sc2n1
pEC50: < 3.70
pIC50: 5.21

COC(C(=O)NCCCCNC(=O)C(OC)c1ccccc1)c1ccccc1 (stereo not drawn)
outcome: inactive

O=c1ccc2cc(Cl)ccc2o1
pEC50: < 4.12
pIC50: < 4.12

COC(=N)C(C)C
pEC50: < 2.74
pIC50: < 2.74

C[n+]1cc(C(O)c2ccc3c(c2)OCO3)c2ccccc2c1 (stereo not drawn)
pEC50: < 4.00
pIC50: 4.53

Cc1ccc([N+](=O)[O-])c2c(NCCC[N+](C)(C)[O-])ccnc12
pEC50: < 3.70
pIC50: 4.54

O=C1CSC(/C(=C\c2ccc(Cl)cc2)c2nc3ccccc3[nH]2)=N1
pEC50: < 5.00
pIC50: < 5.00

COC(=O)c1ccccc1/C=C1\Cc2ccc(C)c(C)c2C1=O
pEC50: < 3.70
pIC50: < 3.70

c1ccc(C(NC2=NCCO2)C2CC2)cc1 (stereo not drawn)
pEC50: < 3.70
pIC50: 4.34

O=C1c2ccccc2CC12Cc1ccccc1C2
pEC50: < 3.70
pIC50: 4.16

Cc1cc2occ(/C=C\C3=C(C#N)C(=O)OC(C)(C)C3)c(=O)c2cc1C
pEC50: < 5.11
pIC50: < 5.11

CCC1CN2CCc3cc(OC)c(OC)cc3C2CC1CC1c2cc(OC)c(OC)cc2CCN1C(=O)CNC(=O)OC(C)(C)C (stereo not drawn)
outcome: inactive

NC(=Nc1nc(-c2ccccn2)cc2ccccc12)c1ccccn1
pEC50: < 4.65
pIC50: 7.07

N#CC1(C2SCCS2=O)C2=C(C(=O)c3ccccc3C2=O)N2CCCC21 (stereo not drawn)
outcome: inactive

C=C1C(=O)OC2CC(C)C3(O)C=C(C(C)=O)C4(OC3CC12)C(=O)OC1CC(C)C(/C=C\C(C)=O)=CCC14 (stereo not drawn)
pEC50: < 4.43
pIC50: 4.72

CCCCCCOc1ccc(C(=O)NOC)cc1
pEC50: < 3.70
pIC50: 3.96

N#CC12C(=N)CCC1C1CC2C2C3C=CC(C3)C12 (stereo not drawn)
pEC50: < 3.70
pIC50: < 3.70

c1ccc2c(c1)[nH]c1c2nc2ncccn21
outcome: inactive

O=C1c2c([N+](=O)[O-])cc(S(=O)(=O)O)c(O)c2C(=O)c2c([N+](=O)[O-])cc(S(=O)(=O)O)c(O)c21
outcome: inactive

CC(=O)C(C(C)=O)C1c2ccccc2-n2nc(-c3ccccc3)c(O)c21 (stereo not drawn)
pEC50: < 4.00
pIC50: 6.10

CC(=O)OCCC1c2ccccc2-n2nc(-c3ccccc3)c(O)c21 (stereo not drawn)
pEC50: < 3.70
pIC50: 4.95

Cc1cc(C)nc(NC(=O)Nc2cc(Cl)ccc2C)c1
pEC50: < 3.70
pIC50: < 3.70

CC(=O)OCSc1ncnc2c1ncn2CN1CCOCC1
pEC50: < 3.11
pIC50: 6.24

COc1ccc2c3c(c4cc(OC)c(OC)cc4c2c1)C[C@H]1CCCCN1C3
pEC50: < 4.50
pIC50: 8.00

CC(C)C1=CC23CCC4C(C)(C(=O)O)CCCC4(C)C2CC1C1C(=O)N(c2ccc(Cc4ccc(N5C(=O)C6C7CC8C9(C)CCCC(C)(C(=O)O)C9CCC8(C=C7C(C)C)C6C5=O)cc4)cc2)C(=O)C13 (stereo not drawn)
pEC50: < 4.45
pIC50: 4.86

c1ccc(-c2nc3nc4ccccc4nc3nc2-c2ccccn2)nc1
pEC50: < 4.27
pIC50: 4.97

CCc1cc2c(c3c1CCCC3=O)CC1(C2)Cc2cc(CC)c3c(c2C1)C(=O)CCC3
pEC50: < 3.70
pIC50: 3.86

O=c1[nH]c(=O)n(COCc2ccccc2)c2ccc([N+](=O)[O-])cc12
pEC50: < 3.70
pIC50: < 3.70

CCOc1cc(C=Nc2ccc(Oc3ccc(Cl)cc3)c(Cl)c2)ccc1O
pEC50: < 3.70
pIC50: 4.53

CC(C)(C)OC(=O)NC(Cc1ccc(OC(C)(C)C)cc1)C(=O)N[C@H]1CC[C@H](C(=O)O)C1 (stereo partly drawn)
outcome: inactive

S=C1Cc2c(-c3ccccc3)cc(-c3cccc(Cl)c3)nc2-c2ccccc2N1
outcome: inactive

Cc1ccc(Nc2nc(NNC(=O)Cc3ccccc3)nc(NNC(=O)c3ccncc3)n2)cc1
pEC50: < 4.30
pIC50: < 4.30

CCC(C#N)N(Cc1ccc(CN(C(=O)c2ccccc2)C(C#N)CC)cc1)C(=O)c1ccccc1 (stereo not drawn)
pEC50: < 3.70
pIC50: 5.06

O=S(=O)([O-])c1ccc2c(c1)-c1nc-2nc2[n-]c(nc3nc(nc4[n-]c(n1)c1ccc(S(=O)(=O)[O-])cc41)-c1cc(S(=O)(=O)[O-])ccc1-3)c1ccc(S(=O)(=O)[O-])cc21.[Cu+2].[Na+]
pEC50: < 3.60
pIC50: 6.22

O=C1NC(O)c2cc3ccccc3cc2O1 (stereo not drawn)
pEC50: < 3.70
pIC50: 3.95

O=c1n(CC2CO2)c2ccccc2n1CC1CS1 (stereo not drawn)
pEC50: < 3.16
pIC50: 4.89

CNc1nnnn1C1OC(CO)C(O)C1O (stereo not drawn)
pEC50: < 2.97
pIC50: < 2.97

O=c1cn[nH]c2nc3ccccc3n12
pEC50: < 3.70
pIC50: < 3.70

N#CC(C#N)=Cn1ccc(=O)[nH]c1=S
pEC50: < 3.70
pIC50: < 3.70

CCCC(=O)NC(Nc1cc(C)ccn1)(C(=O)OCC)C(F)(F)F (stereo not drawn)
pEC50: 3.98
pIC50: 3.30

OCCN1OCCCC1c1ccccc1 (stereo not drawn)
pEC50: < 2.92
pIC50: < 2.92

O=C(CC1(O)C(=O)Nc2c(Cl)cc(Cl)cc21)c1ccc([N+](=O)[O-])cc1 (stereo not drawn)
pEC50: < 3.75
pIC50: 4.03

CC1(C)CNC[C@]2(C)OCCCO[C@@]3(C)CNCC(C)(C)NC(=O)[C@](C)(CNCC(C)(C)NC3=O)OCCCO[C@](C)(CNCC(C)(C)NC2=O)C(=O)N1
pEC50: < 3.70
pIC50: < 3.70

C[n+]1c2ccccc2c(CNC(CS)C(=O)O)c2ccccc21 (stereo not drawn)
outcome: inactive

O=C(CCc1nnc2s/c(=C\c3ccccc3Cl)c(=O)n12)Nc1cc(Cl)ccc1Cl
pEC50: < 3.28
pIC50: < 3.28

CN(CCSSCCN(C)C(N)=S)C(N)=S
pEC50: < 3.70
pIC50: < 3.70

Cc1cn(C2CC(N=[N+]=[N-])C(COC(=O)CCCCCCCCCCOc3ccccc3)O2)c(=O)[nH]c1=O (stereo not drawn)
pEC50: 7.33
pIC50: 3.96

Cc1ccc(C(=O)O)c(O)c1
pEC50: < 2.79
pIC50: 2.98

S=C(SSC(=S)C1CCCC1=NC1CCCCC1)C1CCCC1=NC1CCCCC1 (stereo not drawn)
pEC50: < 3.70
pIC50: 3.82

Cc1cc2c(cc1Cl)SC(NNC(=O)c1ccccc1)=NS2(=O)=O
pEC50: 3.91
pIC50: 3.88

CC(=O)c1ccc2c(c1)CC1(C2)Cc2cc3c(cc2C1)C(=O)CC3 (stereo not drawn)
pEC50: < 3.70
pIC50: 6.63

O=c1c2ccccc2nc2[nH]ncn12
pEC50: < 3.70
pIC50: 3.93

C=C1C(=O)O[C@H]2C1[C@H](OC(=O)/C(C)=C\COC(C)=O)C[C@]1(CO1)[C@@H]1[C@H](O)[C@H]3O[C@@]3(C)[C@@H]12 (stereo partly drawn)
outcome: inactive

CCOC(=O)c1cc(Br)c(-c2onc(C)c2Br)n1C
pEC50: < 3.70
pIC50: 4.05

COc1cc2c(cc1OC)C1C[C@]3(CCN1CC2)C(=O)N(c1ccccc1)C(=O)N3C(C)=O (stereo partly drawn)
pEC50: < 5.00
pIC50: < 5.00

CCOC(=O)c1cc(N/N=C2/CCCNC2=O)c[nH]1
pEC50: < 3.70
pIC50: 4.38

OCC1OC(c2cccc3cc(O)c(O)cc23)CC1O (stereo not drawn)
pEC50: < 3.70
pIC50: 4.29
